Tests used:
[1] = target: T1, human recombinant glucokinase (Homo sapiens, UniProt P35557); assay: Glucokinase activation, coupled enzymatic assay (G6PD/NADH) at 5 mM glucose; type: biochemical; settings: read-out: EC50 for GK activation at 5 mM glucose
T1 sequence (P35557 1-465): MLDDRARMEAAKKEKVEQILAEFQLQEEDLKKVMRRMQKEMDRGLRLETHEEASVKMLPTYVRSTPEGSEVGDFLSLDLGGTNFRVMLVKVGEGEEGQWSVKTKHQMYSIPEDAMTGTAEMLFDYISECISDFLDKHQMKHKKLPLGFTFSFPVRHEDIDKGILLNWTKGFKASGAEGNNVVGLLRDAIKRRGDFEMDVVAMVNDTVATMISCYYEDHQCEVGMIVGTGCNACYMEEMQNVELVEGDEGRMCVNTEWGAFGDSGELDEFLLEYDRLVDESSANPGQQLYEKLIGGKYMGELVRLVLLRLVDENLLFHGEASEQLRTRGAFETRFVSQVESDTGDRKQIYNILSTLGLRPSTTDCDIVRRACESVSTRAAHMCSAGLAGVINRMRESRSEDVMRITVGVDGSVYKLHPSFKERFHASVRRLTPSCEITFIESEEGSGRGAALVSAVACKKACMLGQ
Description: (§1) Glucokinase (GK) activity, in vitro, has been measured using a coupled enzymatic assay (Ref: Hariharan et al (1997) Diabetes 46: 11-16). GK catalyzes the first step, the conversion of glucose to glucose-6-phosphate (G6P) in the presence of ATP. G6P in turn is converted by glucose-6-phosphate dehydrogenase (G6PD) to 6-phosphogluconate, a process that requires NAD, resulting in NADH formation. Since the GK-catalyzed step is the rate-limiting step of this coupled enzymatic process, the rate of accumulation of 6-phosphogluconate and NADH is directly proportional to the rate of glucose phosphorylation by GK. The rate of the GK-catalyzed reaction can therefore be measured by monitoring the increase in NADH absorbance at 340 nm.
(§2) The assay is carried out according to the protocol outlined in Hariharan et al (1997), Diabetes 46: 11-16. Briefly, the test compounds are incubated in a reaction mix containing 25 mM HEPES (pH 7.2), 10 mM MgCl2, 100 mM KCl, 5 mM ATP, 2 mM DTT, 0.5 mM NAD, 1 U/ml Leuconostoc mesenteroides G6PD, 0.3 U/ml of purified human recombinant GK, and different concentrations of glucose. Enzymatic activity is calculated from the initial reaction velocity, measured from the change in NADH absorbance as a function of time.
Compounds described in formula (I), in concentration ranges from 1.0 nM to 500 μM, are tested in the purified human recombinant glucokinase assay described above.
A compound is considered to be a glucokinase activator if it, in its testable range of concentrations, yields a higher rate of glucose phosphorylation than in its absence at a particular glucose concentration, for example at 5 mM glucose.

[2] = target: T1, human recombinant glucokinase; assay: Characterization of partial glucokinase activators: dose-dependent effect on S0.5 of glucokinase for glucose (% ΔS0.5); type: biochemical; settings: for Emax: % change of S0.5 at saturating compound concentration, read-out: % Emax (with respect to % ΔS0.5); for EC50: sigmoidal fit of % ΔS0.5 vs log compound concentration, read-out: EC50 (with respect to % ΔS0.5)
Description: as §1, §2
Compounds of interest from the general formula (I) are tested in the in vitro GK enzymatic assay to monitor dose-dependent effect on glucokinase activation (in kinetic mode), as described above, at various glucose concentrations. The maximum efficacy (Emax) and potency (EC50) for the assessment of partial glucokinase activation have been defined in our co-pending application 409/CHE/2007. The same definitions have also been used here. The S0.5 of glucokinase for glucose at different concentration of each compound of interest is calculated from the following modified version of the Michaelis-Menten equation, V=Vmax[S]^n/(S0.5^n+[S]^n), where [S] is the glucose concentration and n is the Hill coefficient (taken as 1.7 to account for the sigmoidal kinetics of glucokinase with respect to glucose). The S0.5 is plotted against the log of the compound concentration. The change in the S0.5 of glucokinase (ΔS0.5) for glucose is calculated by subtracting the S0.5 at each concentration of the compound from the S0.5 in the vehicle control. The ΔS0.5 is then normalized to a percent scale, where the S0.5 in the vehicle control is set to 0% and 0 mM glucose is set to 100%. The % ΔS0.5 is then plotted against the log of the compound concentration. The EC50 of % change in S0.5 is obtained from the sigmoidal fit of the data.

[3] = cited from earlier work

| Molecule | EC50 [1] | Emax [2] | EC50 [2] | further results |
| --- | --- | --- | --- | --- |
| CC(C)C(O)c1cc(C(=O)Nc2ncc(F)s2)n(Cc2ccc(S(C)(=O)=O)cc2)c1 (stereo not shown) [Example C8, 4-(1-Hydroxy-2-methyl-propyl)-1-(4-methanesulfonyl-benzyl)-1H-pyrrole-2-carboxylic acid (5-fluoro-thiazol-2-yl)-amide] | 430 nM |  |  |  |
| CC(C)C(O)c1cc(C(=O)Nc2ncc(Cl)s2)n(Cc2ccc(F)c(F)c2)c1 (stereo not shown) [Example C2, 1-(3,4-Difluoro-benzyl)-4-(1-hydroxy-2-methyl-propyl)-1H-pyrrole-2-carboxylic acid (5-chloro-thiazol-2-yl)-amide] | 630 nM |  |  |  |
| CC(C)Cc1cc(C(=O)Nc2ncc(Cl)s2)n(Cc2ccc(F)c(C(F)(F)F)c2)c1 [Example A31, 1-(4-Fluoro-3-trifluoromethyl-benzyl)-4-isobutyl-1H-pyrrole-2-carboxylic acid (5-chloro-thiazol-2-yl)-amide] |  | 40% | 220 nM |  |
| CC(C)C(O)c1cc(C(=O)Nc2nccs2)n(Cc2ccc(S(C)(=O)=O)cc2)c1 (stereo not shown) [Example C6, 4-(1-Hydroxy-2-methyl-propyl)-1-(4-methanesulfonyl-benzyl)-1H-pyrrole-2-carboxylic acid thiazol-2-ylamide] | 600 nM |  |  |  |
| O=C(Nc1ncc(F)s1)[C@H](CC1CCOCC1)c1ccc(S(=O)(=O)C2CC2)cc1 [PSN-GK1] |  |  |  | hypoglycemic potential ([3]; at higher dose, Fyfe 2007): hypoglycemic potential |
| CC(C)Cc1cc(C(=O)Nc2ncc(Cl)s2)n(Cc2ccc(F)c(F)c2)c1 [Example A40, 1-(3,4-Difluoro-benzyl)-4-isobutyl-1H-pyrrole-2-carboxylic acid (5-chloro-thiazol-2-yl)-amide] |  | 65% | 200 nM |  |
| CCOC(=O)Cc1nc(NC(=O)c2cc(CC(C)C)cn2Cc2ccc(F)c(F)c2)sc1Cl [Example A116, (5-Chloro-2-{[1-(3,4-difluoro-benzyl)-4-isobutyl-1H-pyrrole-2-carbonyl]-amino}-thiazol-4-yl)-acetic acid ethyl ester] |  | 70% | 300 nM |  |
| CS(=O)(=O)c1ccc(Cc2cc(C(=O)Nc3nc(CC(=O)O)c(Cl)s3)n(Cc3ccc(F)c(F)c3)c2)cc1 [Example E23, (5-Chloro-2-{[1-(3,4-difluoro-benzyl)-4-(4-methanesulfonyl-benzyl)-1H-pyrrole-2-carbonyl]-amino}-thiazol-4-yl)-acetic acid] | 300 nM |  |  |  |
| Ro-28-1675 [reference compound] |  |  |  | hypoglycemia in animal efficacy models ([3]; Kamata et al 2004): cause hypoglycemia; S0.5 of glucokinase for glucose in presence of activator ([2]; drop from approximate 8 mM glucose, enzyme-based in vitro assay): ≤ 1.0 mM |
